Source: US20250099528A1, “ORAL COMPOSITION” (Toyo Shinyaku Co., Ltd., priority 2023, published 2025)

Test system: Caco-2 cells
Assay: Leucine permeability test using Caco-2 cells
Format: in vitro ADME, Human
Settings: Caco-2 insert wells, luminal to basolateral side, culture two hours, L-leucine 0.131 mg/mL, HPLC
Protocol: To assess the action of promoting free amino acid absorption of a dark-green vegetable, leucine permeability was measured by a test using Caco-2 cells. The following materials were used as test substances. • (1) As a dark-green vegetable, crushed powder of young barley grass (containing 43% by weight of dietary fiber; manufactured by TOYO SHINYAKU Co., Ltd.) which was obtained by washing grass harvested before heading, then cutting, drying, and then crushing was used. The crushed powder of young barley grass in an amount of 24 mg was put into a tube, and after adding 1 mL of a buffer, the mixture was vortexed. Then, the supernatant was collected through centrifugation at 15,000×g for five minutes at room temperature. […] When the medium was changed before the addition of the samples, the medium outside the insert wells (the wells at the basolateral side) was replaced with 1000 μl of 10% FBS-DMEM, and the medium inside the insert wells (the wells at the luminal side) was replaced with 350 μl of 10% FBS-DMEM. • (5) The electrical resistance values were measured with Millicell ERS-2, and the wells having a value of 1000Ω or more were used. […] The leucine concentrations of the obtained concentrated liquids were measured with high performance liquid chromatography. The measurement results were applied to the equation below, and thus the leucine permeability was calculated. […]

## CC(C)C[C@H](N)C(=O)O [Comparative Example 1, L-leucine]
  Leucine Permeability (%): 1.32%
